Data from patent publication US20250034139A1, “AMINE COMPOUNDS HAVING ANTI-INFLAMMATORY, ANTIFUNGAL, ANTIPARASITIC, AND ANTICANCER ACTIVITY” (PHARMA CINQ, LLC, priority 2013, published 2025).

Columns and labels:
[1] = system: PC3 human prostate cancer cells; test: Example S: in vitro anticancer screen, PC-3 cells, Wst1; format: cell-based; settings: Homo sapiens, PC-3, approximately 20 hours, Wst1, read-out: PC-3, percent of cancer cell survival relative to vehicle treated cells
Outline: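 PC-3 cells, 2×10^4 cells/well, exposed ~20 h to vehicle or compound at 0.4, 0.5 or 2.5 μM as specified per compound. Wst1 dye added for 2 h; absorbance 450 nm (reference 630 nm), triplicates. Values are percent cell survival versus vehicle-treated cells.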

[2] = system: PC-3 prostate cancer cells; test: Example T: sensitisation of PC-3 cells to doxorubicin, oxaliplatin, paclitaxel or vincristine, Wst1; format: cell-based, human; settings: PC-3 cells, 72 hours; for viability at 0.4 µM / viability at 1.5 µM / viability at 0.5 µM / viability at 2.5 µM: Homo sapiens, Wst1, vehicle = 100, read-out: No Chemo: percent cell survival; for viability at 0.4 µM: compound 0.4 μM alone; for Doxorubicin 3.5 μM: percent cell survival / Oxaliplatin 100 μM: percent cell survival / Paclitaxel 50 μM: percent cell survival / Vincristine 100 nM: percent cell survival: chemotherapy agent alone normalized to 100%; for viability at 1.5 µM: compound 1.5 μM alone; for viability at 0.5 µM: compound 0.5 μM alone; for viability at 2.5 µM: compound 2.5 μM alone
[3] = system: 4T1 murine breast cancer cells; test: Example S: in vitro anticancer screen, 4T1 cells, Wst1; format: cell-based, mouse; settings: Mus musculus, 4T1, 18 h, 18 hr, Wst1; for viability at 1 µM: read-out: 4T1 1 μM, percent of cancer cell survival relative to vehicle treated cells; for viability at 5 µM: read-out: 4T1 5 μM, percent of cancer cell survival relative to vehicle treated cells
Outline: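 4T1 cells seeded at 1×10^4/well were exposed to compound at 1 μM or 5 μM for 18 hr after plating. Wst1 tetrazolium dye was then added for about 2 hr and absorbance read at 450 nm (reference 630 nm). Values are percent survival relative to vehicle-treated cells.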

THP-1 cells = test: Example D: LPS-triggered THP-1 cell death assay, acute/5-hour and chronic/48-hour; format: cell-based, Human; settings: for Viable cell percent change, Chronic/48-hour, Mean: 10 ng/ml LPS, 0.1 μM test compound
Description: Compounds of the invention were tested at 0.1 μM versus AC in the LPS-triggered THP-1 cell death assay. Both acute/5-hour and chronic/48-hour phases of cell death were assessed. Compounds were screened in batches with DMSO as the negative control and AC as the high activity control.

[4] = compound 0.4 μM + doxorubicin 3.5 μM
[5] = compound 0.4 μM + oxaliplatin 100 μM
[6] = compound 0.4 μM + paclitaxel 50 μM
[7] = compound 0.4 μM + vincristine 100 nM
[8] = compound 1.5 μM + doxorubicin 3.5 μM
[9] = compound 1.5 μM + oxaliplatin 100 μM
[10] = compound 1.5 μM + paclitaxel 50 μM
[11] = compound 1.5 μM + vincristine 100 nM
[12] = compound 0.5 μM + doxorubicin 3.5 μM
[13] = compound 0.5 μM + oxaliplatin 100 μM
[14] = compound 0.5 μM + paclitaxel 50 μM
[15] = compound 0.5 μM + vincristine 100 nM
[16] = compound 2.5 μM + doxorubicin 3.5 μM
[17] = compound 2.5 μM + oxaliplatin 100 μM
[18] = compound 2.5 μM + paclitaxel 50 μM
[19] = compound 2.5 μM + vincristine 100 nM

| SMILES | viability at 1 µM [3] | viability at 5 µM [3] | viability at 1.5 µM [1] | viability at 1.5 µM [2] | Doxorubicin 3.5 μM: percent cell survival [2, 8] | Oxaliplatin 100 μM: percent cell survival [2, 9] | Paclitaxel 50 μM: percent cell survival [2, 10] | Vincristine 100 nM: percent cell survival [2, 11] | Viable cell percent change, Chronic/48-hour, Mean (THP-1 cells) | viability at 0.5 µM [1] | viability at 0.5 µM [2] | Doxorubicin 3.5 μM: percent cell survival [2, 12] | Oxaliplatin 100 μM: percent cell survival [2, 13] | Paclitaxel 50 μM: percent cell survival [2, 14] | Vincristine 100 nM: percent cell survival [2, 15] | further results |
| --- | --- | --- | --- | --- | --- | --- | --- | --- | --- | --- | --- | --- | --- | --- | --- | --- |
| CCCCCCOCCCCCCCCNc1ncnc2ccccc12 [EW, N-[8-(Hexyloxy)octyl]quinazolin-4-amine] | 21.2% | 18.9% | – | – | – | – | – | – | – | – | – | – | – | – | – | viability at 0.4 µM [1]: 14.1%; viability at 0.4 µM [2]: 14.1%; Doxorubicin 3.5 μM: percent cell survival [2, 4]: 20%; Oxaliplatin 100 μM: percent cell survival [2, 5]: 16.6%; Paclitaxel 50 μM: percent cell survival [2, 6]: 21.9%; Vincristine 100 nM: percent cell survival [2, 7]: 14.8%; activity relative to AC in the LPS-triggered THP-1 cell death assay, in words (THP-1 cells; 0.1 μM, 5-hour and 48-hour time points): equivalent activity to AC at both the 5-hour and 48-hour time points |
| CCCCCCCCCCCCOCCn1cnc2cnc3ccccc3c21 [FG, 1-[2-(Dodecyloxy)ethyl]-1H-imidazo[4,5-c]quinoline] | 85.7% | 25.5% | 39.2% | 39.2% | 65.7% | 85.5% | 47.2% | 41% | 1.15% | – | – | – | – | – | – | – |
| CCCCCCCCOCCCCCCn1cnc2cnc3ccccc3c21 [FI, 1-[6-(Octyloxy)hexyl]-1H-imidazo[4,5-c]quinoline] | 26.5% | 26.7% | – | – | – | – | – | – | 12.70% | 35.2% | 35.2% | 79.8% | 91.4% | 84% | 73.7% | – |
| CCCCCCOCCCCCCCCCn1cnc2cnc3ccccc3c21 [FJ, 1-[9-(Hexyloxy)nonyl]-1H-imidazo[4,5-c]quinoline] | 38.1% | 24.5% | – | – | – | – | – | – | 27.44% | 38.6% | 38.6% | 75.1% | 93% | 97.3% | 82.2% | – |
| CCCCOCCCCCCCCCCn1cnc2cnc3ccccc3c21 [FK, 1-(10-Butoxydecyl)-1H-imidazo[4,5-c]quinoline] | 23.6% | 15.6% | – | – | – | – | – | – | 16.57% | 35.5% | 35.5% | 47.4% | 62% | 18% | 39% | – |
| COCCCCCCCCNc1cc[n+](C)cc1.[I-] [FL, 4-(8-Methoxyoctylamino)-1-methylpyridinium iodide] | 27.7% | 21.4% | – | – | – | – | – | – | 38.59% | – | – | – | – | – | – | viability at 0.4 µM [1]: 41.2%; viability at 0.4 µM [2]: 41.2%; Doxorubicin 3.5 μM: percent cell survival [2, 4]: 81.3%; Oxaliplatin 100 μM: percent cell survival [2, 5]: 87.9%; Paclitaxel 50 μM: percent cell survival [2, 6]: 92.8%; Vincristine 100 nM: percent cell survival [2, 7]: 69.7% |
| CCCCCCOCCCCCCCCNc1cccc2cnccc12 [FT, N-[8-(Hexyloxy)octyl]isoquinolin-5-amine] | 113% | 27.6% | – | – | – | – | – | – | 3.59% | – | – | – | – | – | – | viability at 2.5 µM [1]: 41.1%; viability at 2.5 µM [2]: 41.1%; Doxorubicin 3.5 μM: percent cell survival [2, 16]: 74.4%; Oxaliplatin 100 μM: percent cell survival [2, 17]: 94.2%; Paclitaxel 50 μM: percent cell survival [2, 18]: 85.2%; Vincristine 100 nM: percent cell survival [2, 19]: 78.3% |
| CCCCCCCCCCOCCCCn1cnc2cnc3ccccc3c21 [GA, 1-[4-(Decyloxy)butyl]-1H-imidazo[4,5-c]quinoline] | 97.1% | 35.5% | 41.3% | 41.3% | 82.2% | 91.8% | 109.2% | 84.2% | 16.51% | – | – | – | – | – | – | – |
| CCCCCCOCCCCCCCCn1cnc2cnc3ccccc3c21 [GB, 1-[8-(Hexyloxy)octyl]-1H-imidazo[4,5-c]quinoline] | 97% | 22.6% | 36.4% | 36.4% | 52.8% | 76.2% | 24% | 38.8% | 19.29% | – | – | – | – | – | – | – |
| CCCCCCOCCCOCCCCCn1cnc2cnc3ccccc3c21 [GC, 1-{5-[3-(Hexyloxy)propoxy]pentyl}-1H-imidazo[4,5-c]quinoline] | 84.8% | 21.1% | – | – | – | – | – | – | 19.30% | – | – | – | – | – | – | viability at 2.5 µM [1]: 19.8%; viability at 2.5 µM [2]: 19.8%; Doxorubicin 3.5 μM: percent cell survival [2, 16]: 59.5%; Oxaliplatin 100 μM: percent cell survival [2, 17]: 63.2%; Paclitaxel 50 μM: percent cell survival [2, 18]: 30.3%; Vincristine 100 nM: percent cell survival [2, 19]: 26.4% |
